Values of other authors, collected in patent publication US8563582B2, “3-aminocyclopentanecarboxamides as modulators of chemokine receptors” (priority 2004, dated 2013).

What was measured:
[1] = test system: HIV
[2] = biological target: human CCR5 (Homo sapiens, UniProt P51681)
[3] = biological target: rhesus macaque CCR5 (Macaca mulatta, UniProt P61813)
[4] = test system: HIV-1; conditions: U-87 astroglioma cells
[5] = test system: HIV-1

human CCR5, sequence (P51681 whole entry): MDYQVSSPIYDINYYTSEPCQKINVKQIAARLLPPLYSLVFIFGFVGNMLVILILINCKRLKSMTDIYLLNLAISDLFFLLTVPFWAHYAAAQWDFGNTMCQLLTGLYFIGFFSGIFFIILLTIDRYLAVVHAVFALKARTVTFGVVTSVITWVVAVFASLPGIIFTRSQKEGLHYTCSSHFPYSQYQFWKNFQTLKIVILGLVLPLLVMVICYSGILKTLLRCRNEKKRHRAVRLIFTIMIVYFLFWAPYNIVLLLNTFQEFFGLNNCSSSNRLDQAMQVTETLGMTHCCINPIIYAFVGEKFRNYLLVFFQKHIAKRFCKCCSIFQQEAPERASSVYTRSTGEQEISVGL

SMILES	anti-HIV activity [1]	inhibition of entry of HIV-1 via human CCR5 [2]	inhibition of HIV-1 entry via rhesus macaque CCR5 [3]	inhibition of HIV-1 infection mediated by CCR5 [4]	effect on infection of CXCR4-expressing cells [5]
Cc1ccc(-c2ccc3c(c2)C=C(C(=O)Nc2ccc(C[N+](C)(C)C4CCOCC4)cc2)CCC3)cc1.[Cl-] [TAK-779]	potent but variable	–	–	–	–
Cc1ncnc(C)c1C(=O)N1CCC(C)(N2CCN([C@@H](C)c3ccc(C(F)(F)F)cc3)[C@@H](C)C2)CC1 [AD101]	–	inhibits	inhibits	–	–
CCO/N=C(\c1ccc(Br)cc1)C1CCN(C2(C)CCN(C(=O)c3c(C)cc[n+]([O-])c3C)CC2)CC1 [SCH-C]	–	–	does not	specifically inhibits	no effect
